Measured values published in patent US10137122B2, “Kinase inhibitors and methods of use thereof” (priority 2012, dated 2018).
Read-outs that look alike come from different tables or passages of the source.

Columns and labels:
[1] = system: TCF/LEF reporter in HEK293-pBARL cells; assay: cells; conditions: Homo sapiens
Description: HEK293-pBARL cells were derived from HEK293 cells and they stably expressed a firefly-luciferase reporter gene driven by a promoter containing 12 copies of TCF/LEF binding sequences. These cells were maintained in DMEM and supplemented with 10% FBS and 1% penicillin-streptomycin (Invitrogen). Reporter gene assays were conducted in anti-biotic free media. […] These cells also contained a renilla-luciferase reporter gene driven by the ubiquitous EF1α promoter as a control. HEK293-pBarl reporter cell lines were seeded into 384-well culture plates (Corning) at 6000 cells/well. 24 hours after plating, cells were treated overnight with relevant compounds and assayed using DualGlo assay kit (Promega). Luminescent intensities were read by EnVision (PerkinElmer, Waltham, Mass.). Firefly luciferase intensity is normalized by renilla luciferase intensity.
Cells were cultured in 384 well plates to appropriate density (40 μl total plating volume). 24 hours after plating, cells were treated with 100 nl compounds. 24 hours after incubation with compounds (48 hours after plating), assay reagents were prepared by mixing Luciferase Assay solution with Luciferase substrate and Stop & Glo solution to Stop & Glo substrate (extra reagents can be aliquoted and frozen for future use and are stable for at least one freeze/thaw cycle). […] The plate was spun down and 10 minutes were allowed for signal stabilization. Luciferase signal on the Perkin Elmer EnVision using the following parameters: Distance between plate & detector (mm)=0.2; Measurement time(s)=0.1; Glow (CT2) correction factor=0. Once the initial data is secure, a volume of Stop & Glo was added equal to each well equal to the volume of Luciferase reagent added above (If 10 μl Luciferase Reagent was added, 10 μl Stop & Glo was also added). The plate was spun down and 10 minutes were allowed for signal stabilization. The plate was read on the EnVision using the same parameters detailed above.

[2] = system: β-catenin nuclear translocation in U2-OS cells; assay: β-Catenin nuclear localization assay; format: cell-based; conditions: Homo sapiens, U2OS, read-out: beta-Catenin translocation EC50
Description: β-Catenin Nuclear Localization Assay
U2-OS cells stably expressing two complimentary β-galactosidase fragments (one part on β-Catenin and the other constitutively expressed in the cell nucleus) were maintained in DMEM F12 supplemented with 10% FBS. When β-catenin translocates to the nucleus, the complimentary fragments form a complete β-galactosidase, the amount of which is then quantified by β-galactosidase activity (DiscoveRx). Cells were seeded in a 384-well CulturPlate (Perkin Elmer, Boston, Mass.) with 10,000 per well in 20 μL DMEM F12 containing 10% FCS, 100 U/ml penicillin and 100 μg/mL streptomycin. After overnight incubation at 37° C., cells were stimulated with 100 nL test compound/well and then returned to the incubator for 6 h. Cells were disrupted using 12 μL substrate-containing lysis buffer from the PathHunter Detection Kit in the formulation specified by the supplier (DiscoveRx). Plates were incubated in the dark for 1 h at room temperature before measurement of β-galactosidase activity (luminescence) on an EnVision plate reader (PerkinElmer, Waltham, Mass.).

[3] = system: phospho-Tau (Ser199) in SH-SY5Y cells; assay: Tau phosphorylation assay (phospho-Tau Ser199 ELISA); format: cell-based, human; conditions: Homo sapiens, SH-SY5Y, read-out: p-Tau Inhibition ELISA EC50 SH-SY5Y
Description: Tau Phosphorylation and Total Tau Assay
SH-SY5Y cells were maintained in DMEM supplemented with 10% heat-inactivated FBS and 1% penicillin-streptomycin (Invitrogen) unless otherwise stated. ELISA kits for phospho-Tau (Ser199) and total Tau detection were purchased from Invitrogen (KHB0041, and KHB7041 respectively). Briefly, SH-SY5Y cells were seeded at 50,000 cells/200 μL/well in 96 well plates and after overnight incubation, treated with various doses of chemical compounds at 0.2 μL/well. The next day cells were washed with PBS twice before being lysed in 100 μL Lysis buffer/well. 50 μL of cell lysate of each sample was transferred to an ELISA vial coated with the capture antibody, and the mixture was incubated at room temperature for 2 hours, before the supernatant was aspired, and each vial washed four times. 100 μL of detection antibody was then added to each well, incubated for 1 hour, and then washed four times. […] Data were scaled using the positive and neutral controls and fitted for IC50.
A standard protocol using an immunoassay kit to quantify total Tau protein and phospho-Tau (Ser199) protein in SH-SY5Y human neuroblastoma cells was employed. Human Tau (Total) ELISA kit (#KHB0041) and human phosphor-Tau (Ser199) ELISA kit were purchased from Invitrogen (#KHB7041)
50,000 cells were seeded in 200 μl per well in cell culture media (250,000 cells/ml). Cells were incubated overnight @37° C. Cells were induced with appropriate doses of inhibitors and incubated for approximately 24 hrs @37° C. Cell lysates were harvested by washing cells once with cold PBS and adding 100 μl cold lysis buffer and pipette up and down vigorously. Lysate was transferred to 96 well PCR plate and centrifuged at 4,000 rpm for 20 minutes at 4° C.
Well strips were warmed and inserted into the frame. 100μ of standard diluent buffer were loaded into ZERO wells, and 100 ul of each standard concentrations (both total Tau and pTau) were loaded into wells in duplicate. Samples were loaded to each well that would be analyzed for total Tau, 85 μl standard diluent buffer and 15 μl cell lysate were added. To each well that will be analyzed for pTau (Ser199) 50 μl standard diluent buffer+50 μl cell lysate were added. Plates were tapped gently on the side to mix. Certain wells were left empty for chromogen blank. Plates were covered and incubated for 2 hours at room temperature. Wells were aspirated 4 times (400 μl diluted wash buffer, left for 30 seconds, aspirated all wells; alternatively used automated plate washer and programmed in a 30 second hold between each cycle). 100 μl of detection antibody solution were added to each well except chromogen blanks. Anti-total Tau was added to wells being analyzed for total Tau, anti-pTau (Ser199) was added to wells being analyzed for pTau (Ser199), and plates were tapped gently on the side to mix. Plates were covered and incubated for 1 hour at room temperature, then wells were aspirated and washed 4 times as described above. 100 μl of anti-rabbit IgG HRP working solution (prepared ahead) were added to each well except chromogen blanks, and plates were covered and incubated for 30 minutes at room temperature, then wells were aspirated and washed 4 times as described above. 100 μl of stabilized chromogen were added to each well (the liquid turned blue). Plates were incubates for 30 minutes at room temperature in the dark, then 100 μl of stop solution were added to each well, and plates were tapped gently on the side to mix. Absorbance of each well was read at 450 nm (within 2 hours of adding stop solution).

[4] = HEK293, read-out: TCF/LEF EC50 (μM)
[5] = HEK293, read-out: TCF/LEF EC50 (μM), HEK293 reporter cells

| EC50 [3] [µM] | Structure (SMILES) | EC50 [1, 4] [µM] | also measured |
| --- | --- | --- | --- |
|  | Cc1[nH]nc2c1[C@@H](c1ccccc1C#N)C1=C(CC(C)(C)CC1=O)N2 [Compound 32, 2-(3,7,7-trimethyl-5-oxo-4,5,6,7,8,9-hexahydro-2H-pyrazolo[3,4-b]quinolin-4-yl)benzonitrile] | 23.4 |  |
| 2.5 | Cc1[nH]nc2c1C(c1cccc(C#N)c1)C1=C(CC(C)(C)CC1=O)N2 (centres unmarked) [Compound 33, 3-(3,7,7-trimethyl-5-oxo-4,5,6,7,8,9-hexahydro-2H-pyrazolo[3,4-b]quinolin-4-yl)benzonitrile] | 5.16 | EC50 [2]: 12 µM |
|  | Cc1[nH]nc2c1C(c1cccnc1)C1=C(CC(C)(C)CC1=O)N2 (centres unmarked) [Compound 37, 3,7,7-trimethyl-4-(pyridin-3-yl)-6,7,8,9-tetrahydro-1H-pyrazolo[3,4-b]quinolin-5(4H)-one] | > 25 |  |
|  | Cc1cccc(C2C3=C(CC(C)(C)CC3=O)Nc3n[nH]c(C)c32)c1 (centres unmarked) [Compound 18, 3,7,7-trimethyl-4-(m-tolyl)-6,7,8,9-tetrahydro-2H-pyrazolo[3,4-b]quinolin-5(4H)-one] | > 25 | EC50 [2]: > 50 µM |
| 0.426 | CC1(C)CC(=O)C2=C(C1)Nc1n[nH]c(C(F)(F)F)c1[C@@H]2c1ccccc1C(F)(F)F (stereo in doubt) [Compound 72, 7,7-dimethyl-3-(trifluoromethyl)-4-(2-(trifluoromethyl)phenyl)-6,7,8,9-tetrahydro-2H-pyrazolo[3,4-b]quinolin-5(4H)-one] | 1.49 |  |
|  | Cc1[nH]nc2c1C(C)(c1ccccc1)C1=C(CC(C)(C)CC1=O)N2 (centres unmarked) [Compound 67, 3,4,7,7-tetramethyl-4-phenyl-6,7,8,9-tetrahydro-2H-pyrazolo[3,4-b]quinolin-5(4H)-one] | > 25 |  |
|  | COc1cccc(C2C3=C(CC(C)(C)CC3=O)Nc3n[nH]c(C)c32)c1 (centres unmarked) [Compound 23, 4-(3-methoxyphenyl)-3,7,7-trimethyl-6,7,8,9-tetrahydro-1H-pyrazolo[3,4-b]quinolin-5(4H)-one] | > 25 |  |
|  | Cc1[nH]nc2c1C(c1ccc3c(c1)OCO3)C1=C(CC(C)(C)CC1=O)N2 (centres unmarked) [Compound 26, 4-(benzo[d][1,3]dioxol-5-yl)-3,7,7-trimethyl-6,7,8,9-tetrahydro-1H-pyrazolo[3,4-b]quinolin-5(4H)-one] | > 25 |  |
|  | Cc1[nH]nc2c1C(c1ccn[nH]1)C1=C(CC(C)(C)CC1=O)N2 (centres unmarked) [Compound 40, 3,7,7-trimethyl-4-(1H-pyrazol-5-yl)-6,7,8,9-tetrahydro-1H-pyrazolo[3,4-b]quinolin-5(4H)-one] | > 25 |  |
| > 30 | Cc1[nH]nc2c1[C@@H](c1ccccc1C(F)(F)F)C1=C(CC(C)(C)CC1=O)N2 (stereo in doubt) [Compound 29, 3,7,7-trimethyl-4-(2-(trifluoromethyl)phenyl)-6,7,8,9-tetrahydro-2H-pyrazolo[3,4-b]quinolin-5(4H)-one] | > 25 | EC50 [2]: > 50 µM |
|  | Cc1[nH]nc2c1C(c1ccc(Cl)s1)C1=C(CC(C)(C)CC1=O)N2 (centres unmarked) [Compound 9, 4-(5-chlorothiophen-2-yl)-3,7,7-trimethyl-6,7,8,9-tetrahydro-1H-pyrazolo[3,4-b]quinolin-5(4H)-one] | > 25 |  |
|  | Cc1[nH]nc2c1C(c1ccccc1F)C1=C(CC(C)(C)CC1=O)N2 (centres unmarked) [Compound 10, 4-(2-fluorophenyl)-3,7,7-trimethyl-6,7,8,9-tetrahydro-1H-pyrazolo[3,4-b]quinolin-5(4H)-one] | 12.7 |  |
|  | Cc1[nH]nc2c1C(c1ccsc1)C1=C(CC(C)(C)CC1=O)N2 (centres unmarked) [Compound 8, 3,7,7-trimethyl-4-(thiophen-3-yl)-6,7,8,9-tetrahydro-1H-pyrazolo[3,4-b]quinolin-5(4H)-one] | > 25 |  |
| > 30 | COc1ccccc1[C@H]1C2=C(CC(C)(C)CC2=O)Nc2n[nH]c(C)c21 [Compound 21, 4-(2-methoxyphenyl)-3,7,7-trimethyl-6,7,8,9-tetrahydro-1H-pyrazolo[3,4-b]quinolin-5(4H)-one] | > 25 |  |
|  | Cc1[nH]nc2c1C(c1ccc(F)cc1Cl)C1=C(CC(C)(C)CC1=O)N2 (centres unmarked) [Compound 35, 4-(2-chloro-4-fluorophenyl)-3,7,7-trimethyl-6,7,8,9-tetrahydro-1H-pyrazolo[3,4-b]quinolin-5(4H)-one] | > 25 |  |
|  | Cc1[nH]nc2c1C(c1ccc(Br)cn1)C1=C(CC(C)(C)CC1=O)N2 (centres unmarked) [Compound 39, 4-(5-bromopyridin-2-yl)-3,7,7-trimethyl-6,7,8,9-tetrahydro-1H-pyrazolo[3,4-b]quinolin-5(4H)-one] | > 25 |  |
| 2.49 | Cc1[nH]nc2c1C(c1ccccc1Cl)C1=C(CC(C)(C)CC1=O)N2 (centres unmarked) [Compound 13, 4-(2-chlorophenyl)-3,7,7-trimethyl-6,7,8,9-tetrahydro-2H-pyrazolo[3,4-b]quinolin-5(4H)-one] | 24 | EC50 [2]: 41.1 µM |
| 4.48 | COC(=O)c1[nH]nc2c1C(C)(c1ccccc1)C1=C(CC(C)(C)CC1=O)N2 (centres unmarked) [Compound 104] |  |  |

| EC50 [3] [µM] | Structure (SMILES) | EC50 [1, 4] [µM] | also measured |
| --- | --- | --- | --- |
|  | COc1ccc(C2C3=C(CC(C)(C)CC3=O)Nc3n[nH]c(C)c32)cc1 (centres unmarked) [Compound 24, 4-(4-methoxyphenyl)-3,7,7-trimethyl-6,7,8,9-tetrahydro-1H-pyrazolo[3,4-b]quinolin-5(4H)-one] | > 25 |  |
|  | Cc1[nH]nc2c1C(c1ccncc1)C1=C(CC(C)(C)CC1=O)N2 (centres unmarked) [Compound 38, 3,7,7-trimethyl-4-(pyridin-4-yl)-6,7,8,9-tetrahydro-1H-pyrazolo[3,4-b]quinolin-5(4H)-one] |  | EC50 [1, 5]: > 25 µM |
|  | Cc1[nH]nc2c1C(c1cccc(Cl)c1)C1=C(CC(C)(C)CC1=O)N2 (centres unmarked) [Compound 14, 4-(3-chlorophenyl)-3,7,7-trimethyl-6,7,8,9-tetrahydro-1H-pyrazolo[3,4-b]quinolin-5(4H)-one] | 31.3 |  |
|  | COc1ccccc1C1C2=C(CC(C)(C)CC2=O)Nc2n[nH]c(C(F)(F)F)c21 (racemic) [Compound 53, 4-(2-methoxyphenyl)-7,7-dimethyl-3-(trifluoromethyl)-6,7,8,9-tetrahydro-2H-pyrazolo[3,4-b]quinolin-5(4H)-one] |  | EC50 [1, 5]: 16.9 µM; EC50 [2]: 14 µM |
|  | Cc1[nH]nc2c1C(c1cccc(F)c1)C1=C(CC(C)(C)CC1=O)N2 (centres unmarked) [Compound 11, 4-(3-fluorophenyl)-3,7,7-trimethyl-6,7,8,9-tetrahydro-1H-pyrazolo[3,4-b]quinolin-5(4H)-one] | > 25 |  |
|  | Cc1[nH]nc2c1C(c1ccc(F)cc1)C1=C(CC(C)(C)CC1=O)N2 (centres unmarked) [Compound 12, 4-(4-fluorophenyl)-3,7,7-trimethyl-6,7,8,9-tetrahydro-1H-pyrazolo[3,4-b]quinolin-5(4H)-one] | > 25 |  |
| 22 | CC1(C)CC(=O)C2=C(C1)Nc1n[nH]c(C(F)(F)F)c1[C@H]2c1ccccc1C(F)(F)F (stereo in doubt) [Compound 73, 7,7-dimethyl-3-(trifluoromethyl)-4-(2-(trifluoromethyl)phenyl)-6,7,8,9-tetrahydro-2H-pyrazolo[3,4-b]quinolin-5(4H)-one] | > 25 |  |
| 4.55 | CC1(C)CC(=O)C2=C(C1)Nc1n[nH]c(Cl)c1C2(C)c1ccccc1 (centres unmarked) [Compound 110] |  |  |
|  | Cc1[nH]nc2c1C(c1ccc(C#N)cc1)C1=C(CC(C)(C)CC1=O)N2 (centres unmarked) [Compound 34, 4-(3,7,7-trimethyl-5-oxo-4,5,6,7,8,9-hexahydro-2H-pyrazolo[3,4-b]quinolin-4-yl)benzonitrile] | > 25 |  |
|  | Cc1[nH]nc2c1C(c1ccc(Cl)cc1)C1=C(CC(C)(C)CC1=O)N2 (centres unmarked) [Compound 15, 4-(4-chlorophenyl)-3,7,7-trimethyl-6,7,8,9-tetrahydro-1H-pyrazolo[3,4-b]quinolin-5(4H)-one] | > 25 |  |
|  | Cc1[nH]nc2c1C(c1ccc(C(F)(F)F)cc1)C1=C(CC(C)(C)CC1=O)N2 (centres unmarked) [Compound 31, 3,7,7-trimethyl-4-(4-(trifluoromethyl)phenyl)-6,7,8,9-tetrahydro-2H-pyrazolo[3,4-b]quinolin-5(4H)-one] | > 25 | EC50 [2]: > 50 µM |
| 22.2 | CCC1(c2ccccc2)C2=C(CC(C)(C)CC2=O)Nc2n[nH]c(C)c21 (racemic) [Compound 89, 9-ethyl-1,6,6-trimethyl-9-phenyl-5,6,7,9-tetrahydro-2H-pyrazolo[3,4-b]quinolin-8(4H)-one] |  |  |
|  | Cc1[nH]nc2c1C(c1cccs1)C1=C(CC(C)(C)CC1=O)N2 (racemic) [Compound 5, 3,7,7-trimethyl-4-(thiophen-2-yl)-6,7,8,9-tetrahydro-1H-pyrazolo[3,4-b]quinolin-5(4H)-one] | > 25 |  |
|  | Cc1[nH]nc2c1[C@H](c1ccccc1Br)C1=C(CC(C)(C)CC1=O)N2 (racemic) [Compound 80, 4-(2-bromophenyl)-3,7,7-trimethyl-6,7,8,9-tetrahydro-2H-pyrazolo[3,4-b]quinolin-5(4H)-one] | 5.63 |  |
| 9.14 | COc1ccccc1C1C2=C(CC(C)(C)CC2=O)Nc2n[nH]c(C)c21 (racemic) [Compound 20, 4-(2-methoxyphenyl)-3,7,7-trimethyl-6,7,8,9-tetrahydro-1H-pyrazolo[3,4-b]quinolin-5(4H)-one] | 17.9 |  |
|  | Cc1[nH]nc2c1C(c1ccccn1)C1=C(CC(C)(C)CC1=O)N2 (centres unmarked) [Compound 36, 3,7,7-trimethyl-4-(pyridin-2-yl)-6,7,8,9-tetrahydro-1H-pyrazolo[3,4-b]quinolin-5(4H)-one] | > 25 |  |
| 2.98 | CC1(C)CC(=O)C2=C(C1)Nc1n[nH]c(Br)c1C2(C)c1ccccc1 (centres unmarked) [Compound 111] |  |  |
|  | Cc1ccc(C2C3=C(CC(C)(C)CC3=O)Nc3n[nH]c(C)c32)cc1 (centres unmarked) [Compound 19, 3,7,7-trimethyl-4-(p-tolyl)-6,7,8,9-tetrahydro-1H-pyrazolo[3,4-b]quinolin-5(4H)-one] | > 25 |  |

| Structure (SMILES) | EC50 [3] [µM] | EC50 [1, 4] [µM] | also measured |
| --- | --- | --- | --- |
| Cc1[nH]nc2c1C(c1ccccc1)(C(F)(F)F)C1=C(CC(C)(C)CC1=O)N2 (centres unmarked) [Compound 92, 1,6,6-trimethyl-9-phenyl-9-(trifluoromethyl)-5,6,7,9-tetrahydro-2H-pyrazolo[3,4-b]quinolin-8(4H)-one] | 20.4 |  |  |
